For data set [1], the system named is T. brucei bloodstream form. The data set can be described thus: Initial screen, T. brucei bloodstream form, Alamar Blue. In kind it is cell-based, Trypanosoma brucei brucei. Particulars: for initial hit against T. brucei: growth reduced by ≥50%; for inhibition of growth at 2 µM: read-out: initial hit T.b. The method, boiled down: (§1)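 Bloodstream-form T. evansi Antat 3/3 and T. brucei Lister 427 were grown in HMI-11 with 10% FBS at 37 °C. Parasites were plated at 1×10^5 cells/mL with compound at 1 μM (T. evansi) or 2 μM (T. brucei) for 48 h, and growth was read by Alamar Blue relative to 1% DMSO controls (n = 6).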

Data set [2] concerns T. evansi bloodstream form. The data set can be described thus: Initial screen, T. evansi bloodstream form, Alamar Blue. Type of data set: cell-based, Trypanosoma evansi. Particulars: initial screen; for activity at 1 µM: Trypanosoma evansi. Put shortly:
as §1
In general terms: Alamar Blue is a resazurin reagent that responds to reducing activity.

Data set [3] deals with P. falciparum Dd2Luc intraerythrocytic trophozoites. The data set can be described thus: Initial screen, intraerythrocytic P. falciparum, Malaria SYBR-Green I fluorescence assay. In kind it is cell-based, Plasmodium falciparum. The following applies: Plasmodium falciparum, 48 h. The method, boiled down:
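L. mexicana axenic amastigotes at 1 × 10^6 cells/mL exposed 72 h to compounds at 2 μM, growth read by Alamar Blue; P. falciparum trophozoites at 0.5% parasitaemia, 2% haematocrit, 48 h at 2 μM, SYBR-Green I read-out. Growth normalised to 1% DMSO; hits ≥50% growth reduction.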

The test system of a further data set is T. brucei. The data set can be described thus: Concentration-response EC50, T. brucei. In kind it is cell-based, Trypanosoma brucei brucei.
The nature of data set [4]: Cytotoxicity CC50, HepG2, Alamar Blue. Particulars: human. Put shortly: (§2)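 Human hepatoma cells seeded at 1 × 10^5 cells/mL with two-fold serial compound dilutions, incubated 48 h at 37 °C, 5% CO2 in DMEM/10% FBS. Viability read by Alamar Blue. CC50 estimated from viability normalised to untreated controls versus log concentration.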
Data set [5] relates to HepG2 cells. The data set can be described thus: Cytotoxicity CC50, HepG2, Alamar Blue. The following applies: 48 h. Put shortly: as §2
The test system of data set [6] is L. mexicana axenic amastigotes. The data set can be described thus: Initial screen, L. mexicana axenic amastigotes, Alamar Blue. Type of data set: cell-based, Leishmania mexicana. The method, boiled down: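 Purified temperate plant natural products from a commercial library (1 mg/mL in DMSO) were tested against Leishmania mexicana axenic amastigotes at a final 2 μM. Parasites were seeded at 1 × 10^6 cells/mL in 96-well plates containing 200 μL culture and incubated 72 h. Growth was measured by Alamar Blue and normalised to DMSO controls (1% v/v), with triplicates over two biological replicates (n = 6).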

Data set [7] has as its system L. mexicana axenic amastigotes. The data set can be described thus: Concentration-response EC50, L. mexicana axenic amastigotes (WT). Particulars: read-out: L. mexicana EC50; axenic amastigotes, 72 h. Type of data set: cell-based, Leishmania mexicana.
Description: Initial hits from the parasite panel screen were taken forward in log concentration versus normalised response assays to estimate the half maximal effective concentration (EC50) in hit species as well as the half maximal cytotoxic concentrations (CC50) in the human hepatoma cell line HepG2 as a preliminary test for selectivity. Using CC50/EC50 to define the selectivity index (SI), the selectivity for each compound in a defined species compared to a human cell line was estimated and compared to the EC50 (Figure 3).
EC50 values were determined by serial two-fold dilution of each compound in 96 well plates. Culture conditions and viability assays were as stated for the initial screen, with some exceptions. L. mexicana and L. donovani axenic amastigotes were seeded at 2 × 10^6 cell/s mL, T. brucei and T. evansi were seeded at 2 × 10^5 cells/mL. For cytotoxicity studies, HepG2 cells were seeded at 1 × 10^5 cells/mL, incubated for 48 h and viability was assessed using the Alamar Blue assay [66, 67]. […] Normalised growth and viability data (compared to untreated controls) were plotted against Log10 concentration to estimate EC50 in GraphPad (Prism v6).
Data set [8] relates to activated monocyte cell line (THP-1). The data set can be described thus: Cytotoxicity CC50, differentiated THP-1, Alamar Blue. In kind it is cell-based, human. The following applies: differentiated THP-1, 48 h; read-out: THP1 CC50. The source says:
The four lanosterone-like sterols derived from the Noble Fir Abies procera (700022, 700107, 700136) and the Grand Fir Abies grandis (700240) were the only initial compounds taken forward for L. mexicana due to their nanomolar activity and apparent low cytotoxicity (Figure 3a). […] Understanding the impact of the ring-opened lactone head group in this compound compared to the other three warrants further analysis in exploring their structure-activity relationships. These four sterols were also tested for growth inhibitory activity against L. donovani axenic amastigotes. […] As Leishmania spp. amastigotes typically reside with macrophages, further cytotoxicity assays with these sterols were performed against an activated monocyte cell line (THP-1) (Figure 4b). […]

Data set [9] relates to HepG2 cells. Also noted: method as in PMID 31617221. Particulars: cited from earlier work.
The next data set deals with P. falciparum Dd2Luc. Also on record: method as in PMID 27999014. The following applies: control compounds; cited from earlier work.
In the next data set the test system is T. b. rhodesiense. Also on record: method as in PMID 29896963. Particulars: cited from earlier work.
For data set [10], the system named is P. falciparum NF54 strain. Also noted: method as in PMID 29896963. The following applies: drug sensitive NF54 strain; cited from earlier work.
Setting [11] is: Trypanosoma brucei, 2 μM, x = initial hit.
[12] abbreviates: Trypanosoma brucei, 48 h, bloodstream form, 48 h; read-out: T. brucei EC50.
Setting [13] is: read-out: mean % growth, P. falciparum, initial screen, compared to a normalised control with same concentration of DMSO solvent.
Setting [14] is: initial screen, compared to a normalised control with same concentration of DMSO solvent.

Structures are written as SMILES. Read-outs that look alike come from different tables or passages of the source. A value given as a limit tells only on which side of the number the result lay.

A word on the EC50: it is the concentration needed to bring the measured effect to its halfway point.

Consider `CC(=O)OC1C(C)OC(OC2C(OC(=O)C3CC[C@@H]4[C@H](C3)OC3(CC(OC(=O)/C=C/c5ccccc5)[C@@H](C)CO3)C4(O)CO)OC(C)C(O)C2OC(C)=O)C(O)C1O` (stereo partly shown) [Compound 700035], for which the “initial hit against T. brucei” value in data set [1] (2 μM) is given as “initial hits”. Besides, the inhibition of growth at 2 µM in [1] (setting [11]) was above 50%. Besides, the activity at 1 µM in [2] (mean % growth compared to a normalised control with same concentration of DMSO solvent, read-out: % growth T. evansi) came out at 105%. Besides, the activity at 2 µM in [3] (read-out: %growth P. falciparum, mean % growth compared to a normalised control with same concentration of DMSO solvent, initial screen) came out at 90.1%. Besides, the EC50 was found to be 0.35 µM in the data set with T. brucei (setting [12]) and 0.36 µM with T. brucei (bloodstream form, 48 h; read-out: T. brucei EC50). The same molecule had a CC50 at 48 h in data set [4] (pH 7, HepG2 CC50, 48 h) of 15.2 µM. The CC50 with HepG2 cells [5] (read-out: HepG2 CC50) worked out at 15 µM.

`COC(=O)C1=COC(O)C2C1CC(OC(=O)/C=C/c1ccc(O)cc1)C2C` (stereo not shown) [Compound 701145]: the activity at 2 µM in data set [6] (Leishmania mexicana, read-out: mean % growth, L. mexicana, initial screen, compared to a normalised control with same concentration of DMSO solvent) came out at 48.9%; in [1] (Trypanosoma brucei, initial screen, compared to a normalised control with same concentration of DMSO solvent, read-out: mean % growth, T. b. brucei), 3.4%; in data set [3] (setting [13]), 96%. Also, the “initial hit against T. brucei” value in data set [1] (2 μM) is “initial hits”. For the same molecule, in data set [1] (setting [11]), the inhibition of growth at 2 µM was above 50%. Moreover, in [2] (compared to a normalised control with same concentration of DMSO solvent, read-out: mean % growth, T. evansi), the activity at 1 µM worked out at 118%. Further, the 50% effective concentration (EC50) with T. brucei (setting [12]) was found to be 0.52 µM. In addition, the CC50 at 48 h in [4] (pH 7, HepG2 CC50) was 27.8 µM. The same molecule returned a CC50 with HepG2 cells [5] (human, pH 7) of 28 µM.

`C=C1C(=O)OC2CC(C)C3C=CC(=O)C3(C)C(OC(C)=O)C12` (stereo not shown) [Compound 701154]: the “initial hit against L. mexicana” value in [6] (2 μM, growth inhibited by ≥80%) was “initial hits”. The inhibition of growth at 2 µM in [6] (Leishmania mexicana, read-out: initial hit L.m) is above 80%; in data set [1] (Trypanosoma brucei) it was above 50%. Besides, the “mean % growth, L. mexicana” value in [6] (setting [14]) was -0.64%. Also, in [1] (2 μM), the “initial hit against T. brucei” value was “initial hits”. In data set [1] (setting [14]), the “mean % growth, T. b. brucei” value was 14.7%. The “mean % growth, T. evansi” value in data set [2] (compared to a normalised control with same concentration of DMSO solvent) amounted to 79.8%. For the same molecule, the activity at 2 µM in data set [3] (setting [13]) turned out to be 66.5%. Besides, the EC50 in [7] is 0.95 µM; with T. brucei (read-out: T. brucei EC50; bloodstream form, 48 h) it was 1.6 µM. The CC50 worked out at 4.2 µM with HepG2 cells [5] (read-out: HepG2 CC50) and 1.5 µM in data set [8].

Regarding `COc1cc(C[C@H]2C(=O)OC[C@@H]2Cc2ccc(OC)c(OC)c2)ccc1O` [arctigenin], the “antiproliferative activity against HepG2 cells” value with HepG2 cells [9] was “potent antiproliferative activity”.

`O=C1C(O)=C([C@H]2CC[C@H](c3ccc(Cl)cc3)CC2)C(=O)c2ccccc21` [atovaquone]: the “rate of kill of control antimalarials” value in the data set with P. falciparum Dd2Luc is “slow killing compound with 48 h lag in action”.

`C[C@H]1[C@@H](O)O[C@@H]2O[C@@]3(C)CC[C@H]4[C@H](C)CC[C@@H]1[C@@]24OO3` [dihydroartemisinin]: the “rate of kill of control antimalarials” value in the data set on P. falciparum Dd2Luc is on record as “rapid initial rate of kill with no lag in action”.

In the case of `CC(C)c1cc(CC[C@@H]2C(=O)CCCC2(C)C)c(O)cc1O` [leriifoliol], the “activity against T. b. rhodesiense” value with T. b. rhodesiense was “micromolar activity”. Also, the “activity against P. falciparum” value in data set [10] is reported as “submicromolar activity”.
